Molecules are shown by their SMILES. pEC50: −log10 of the molar value. Where two headings read alike, the source gives them in different places.

The target in one assay is T1, rat CB2 receptor (rCB2) (Rattus norvegicus, UniProt Q9QZN9).
T1 sequence (Q9QZN9 1-360): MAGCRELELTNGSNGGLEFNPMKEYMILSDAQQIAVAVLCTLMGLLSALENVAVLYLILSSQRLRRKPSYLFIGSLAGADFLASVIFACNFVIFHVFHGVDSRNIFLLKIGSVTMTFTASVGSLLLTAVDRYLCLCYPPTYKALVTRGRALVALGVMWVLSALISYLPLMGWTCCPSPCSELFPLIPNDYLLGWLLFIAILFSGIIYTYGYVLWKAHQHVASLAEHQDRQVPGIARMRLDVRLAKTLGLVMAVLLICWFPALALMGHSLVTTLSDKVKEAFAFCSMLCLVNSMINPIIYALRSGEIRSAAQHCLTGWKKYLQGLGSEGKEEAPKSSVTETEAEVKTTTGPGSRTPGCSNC
Nature of the assay: cell-based. The format is cell-based. As to conditions: for +/− RCB2: agonist or inverse agonist at rCB2. A digest of the protocol: (§1)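 Agonism or inverse agonism was assessed as change in intracellular cAMP in CHO-K1 cells expressing human CB1 or rat CB2 (genomic DNA, pcDNA3.1).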

Assay [1] addresses human CB1 receptor (hCB1) (Homo sapiens, UniProt P21554). Nature of the assay: cell-based. The format is cell-based. As to conditions: for +/− HCB1: agonist or inverse agonist at hCB1; for EC50: groups >100 nM-10 μM and >10 μM, cAMP, CHO-K1 hCB1, read-out: EC50 HCB1. A digest of the protocol:
as §1

human CB1 receptor (hCB1), sequence (P21554 whole entry): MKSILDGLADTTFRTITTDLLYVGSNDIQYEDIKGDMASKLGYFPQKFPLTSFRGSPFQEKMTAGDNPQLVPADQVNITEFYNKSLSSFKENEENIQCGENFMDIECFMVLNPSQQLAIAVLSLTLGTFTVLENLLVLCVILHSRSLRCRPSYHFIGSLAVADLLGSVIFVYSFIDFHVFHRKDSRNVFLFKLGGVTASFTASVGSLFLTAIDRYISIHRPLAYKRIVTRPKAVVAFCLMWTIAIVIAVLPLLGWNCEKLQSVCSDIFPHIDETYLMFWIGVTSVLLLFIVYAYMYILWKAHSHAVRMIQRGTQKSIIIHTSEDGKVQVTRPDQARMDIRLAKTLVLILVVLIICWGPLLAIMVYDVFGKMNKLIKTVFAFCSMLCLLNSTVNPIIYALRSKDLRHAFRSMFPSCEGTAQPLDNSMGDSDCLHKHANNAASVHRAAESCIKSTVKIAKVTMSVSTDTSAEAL

Regarding `CNC(=O)[C@H](Cc1cscn1)NC(=O)c1nc(-c2cc(Cl)c(F)cc2F)n2c1CN(C)CCC2` [Compound 593, (S)-3-(5-chloro-2,4-difluorophenyl)-8-methyl-N-(1-(methylamino)-1-oxo-3-(thiazol-4-yl)propan-2-yl)-6,7,8,9-tetrahydro-5H-imidazo[1,5-a][1,4]diazepine-1-carboxamide], the “+/− RCB2” value on rat CB2 receptor (rCB2) is given as “+”. Moreover, the “+/− HCB1” value in assay [1] was “+”.

Usually EC50 stands for the concentration that produces a half-maximal response. Take `C[C@@H](NC(=O)c1nc(-c2ccccc2)n2c1CNCC2)C1CCCCC1` [Compound 45, (R)-N-(1-cyclohexylethyl)-3-phenyl-5,6,7,8-tetrahydroimidazo[1,5-a]pyrazine-1-carboxamide]: the “+/− RCB2” value at rat CB2 receptor (rCB2) was “−”. In assay [1], the EC50 was more than 10000 nM.

As to `CC(C)C[C@H](NC(=O)c1nc(-c2ccc(Cl)cc2F)n2c1CN(C)CCC2)C(N)=O` [Compound 564, (S)-N-(1-amino-4-methyl-1-oxopentan-2-yl)-3-(4-chloro-2-fluorophenyl)-8-methyl-6,7,8,9-tetrahydro-5H-imidazo[1,5-a][1,4]diazepine-1-carboxamide], on rat CB2 receptor (rCB2), the “+/− RCB2” value is recorded as “+”. The “+/− HCB1” value in assay [1] is recorded as “+”.

A word on the pEC50: it is the EC50 on a negative log10 scale, so that one unit is a factor of ten. Higher therefore signals a low EC50. Take `CNC(=O)[C@@H](NC(=O)c1nc(-c2cccnc2)n2c1CNCC2)C(C)(C)C` [Compound 14, (S)-N-(3,3-dimethyl-1-(methylamino)-1-oxobutan-2-yl)-3-(pyridin-3-yl)-5,6,7,8-tetrahydroimidazo[1,5-a]pyrazine-1-carboxamide]: the “+/− RCB2” value at rat CB2 receptor (rCB2) is listed as “+”. For the same molecule, the pEC50 in assay [1] was less than 5.00.

On to `CC(C)=CC(=O)c1nc(-c2ccccc2)n2c1CN(C)CC2` [Compound 293, 3-methyl-1-(7-methyl-3-phenyl-5,6,7,8-tetrahydroimidazo[1,5-a]pyrazin-1-yl)but-2-en-1-one], for which, on rat CB2 receptor (rCB2), the “+/− RCB2” value is “−”. For the same molecule, in assay [1], the EC50 is more than 10000 nM.

For the molecule `CNC(=O)[C@H](CC(C)(C)C)NC(=O)c1nc(-c2ccc(Cl)cc2F)n2c1CN(C)CCC2` [Compound 544, (S)-3-(4-chloro-2-fluorophenyl)-N-(4,4-dimethyl-1-(methylamino)-1-oxopentan-2-yl)-8-methyl-6,7,8,9-tetrahydro-5H-imidazo[1,5-a][1,4]diazepine-1-carboxamide], the “+/− RCB2” value at rat CB2 receptor (rCB2) is recorded as “+”. In assay [1], the “+/− HCB1” value was “+”.

Regarding `CNC(=O)[C@@H](NC(=O)c1nc(C#Cc2cccnc2)n2c1CN(C)CC2)C(C)(C)C` [Compound 205, (S)-N-(3,3-dimethyl-1-(methylamino)-1-oxobutan-2-yl)-7-methyl-3-(pyridin-3-ylethynyl)-5,6,7,8-tetrahydroimidazo[1,5-a]pyrazine-1-carboxamide], the pEC50 (on rat CB2 receptor (rCB2); in assay [1]) was less than 5.00 in each case.

On to `O=C(NC1CCCCC1)c1nc(-c2ccccc2)n2c1CN(CC1CCOC1)CC2` (stereo not drawn) [Compound 141, N-cyclohexyl-3-phenyl-7-((tetrahydrofuran-3-yl)methyl)-5,6,7,8-tetrahydroimidazo[1,5-a]pyrazine-1-carboxamide], for which, on rat CB2 receptor (rCB2), the “+/− RCB2” value was “−”. In addition, the pEC50 in assay [1] was less than 5.00.

With `CNC(=O)[C@H](CC(C)(C)C)NC(=O)c1nc(-c2cc(F)ccc2F)n2c1CN(C)CCC2` [Compound 553, (S)-3-(2,5-difluorophenyl)-N-(4,4-dimethyl-1-(methylamino)-1-oxopentan-2-yl)-8-methyl-6,7,8,9-tetrahydro-5H-imidazo[1,5-a][1,4]diazepine-1-carboxamide], the pEC50 (at rat CB2 receptor (rCB2); in assay [1]) was less than 5.00 each time.

Regarding `CNC(=O)[C@@H](NC(=O)c1nc(-c2ccccc2)n2c1CN(C(=O)c1ccccc1)CC2)C(C)(C)C` [Compound 127, (S)-7-benzoyl-N-(3,3-dimethyl-1-(methylamino)-1-oxobutan-2-yl)-3-phenyl-5,6,7,8-tetrahydroimidazo[1,5-a]pyrazine-1-carboxamide], the negative logarithm of the EC50 (pEC50) (at rat CB2 receptor (rCB2); in assay [1]) was less than 5.00 in each case.

Consider `CNC(=O)[C@@H](NC(=O)c1nc(-c2cn[nH]c2)n2c1CN(C)CCC2)C(C)(C)C` [Compound 432, (S)-N-(3,3-dimethyl-1-(methylamino)-1-oxobutan-2-yl)-8-methyl-3-(1H-pyrazol-4-yl)-6,7,8,9-tetrahydro-5H-imidazo[1,5-a][1,4]diazepine-1-carboxamide], for which the “+/− RCB2” value on rat CB2 receptor (rCB2) is reported as “+”. In assay [1], this molecule gave a pEC50 of less than 5.00.

As for `CC(C)NC(=O)[C@@H](NC(=O)c1nc(-c2ccccc2)n2c1CN(C)CCC2)C(C)(C)C` [Compound 472, (S)-N-(1-(isopropylamino)-3,3-dimethyl-1-oxobutan-2-yl)-8-methyl-3-phenyl-6,7,8,9-tetrahydro-5H-imidazo[1,5-a][1,4]diazepine-1-carboxamide], the “+/− RCB2” value at rat CB2 receptor (rCB2) is listed as “+”. For the same molecule, the pEC50 in assay [1] is less than 5.00.

As for `CN1CCCn2c(-c3ccc(Cl)cc3F)nc(C(=O)N[C@H](C(N)=O)C(C)(C)C)c2C1` [Compound 573, (S)-N-(1-amino-3,3-dimethyl-1-oxobutan-2-yl)-3-(4-chloro-2-fluorophenyl)-8-methyl-6,7,8,9-tetrahydro-5H-imidazo[1,5-a][1,4]diazepine-1-carboxamide], the “+/− RCB2” value at rat CB2 receptor (rCB2) is “+”. Also, the “+/− HCB1” value in assay [1] is given as “+”.

Take `CNC(=O)[C@@H](NC(=O)c1nc(-c2ccccc2Cl)n2c1CNCC2)C(C)(C)C` [Compound 10, (S)-3-(2-chlorophenyl)-N-(3,3-dimethyl-1-(methylamino)-1-oxobutan-2-yl)-5,6,7,8-tetrahydroimidazo[1,5-a]pyrazine-1-carboxamide]: on rat CB2 receptor (rCB2), the “+/− RCB2” value is “+”. In addition, the pEC50 in assay [1] was less than 5.00.

On to `CNC(=O)[C@@H](NC(=O)c1nc(-c2ccccc2)n2c1CN(C(=O)NC(C)(C)C)CC2)C(C)(C)C` [Compound 192, (S)-N7-tert-butyl-N1-(3,3-dimethyl-1-(methylamino)-1-oxobutan-2-yl)-3-phenyl-5,6-dihydroimidazo[1,5-a]pyrazine-1,7(8H)-dicarboxamide], for which, on rat CB2 receptor (rCB2), the “+/− RCB2” value is given as “−”. Also, in assay [1], the pEC50 was less than 5.00.

Take `CNC(=O)[C@@H](NC(=O)c1nc(-c2ccccc2C(N)=O)n2c1CN(C)CCC2)C(C)(C)C` [Compound 431, (S)-3-(2-carbamoylphenyl)-N-(3,3-dimethyl-1-(methylamino)-1-oxobutan-2-yl)-8-methyl-6,7,8,9-tetrahydro-5H-imidazo[1,5-a][1,4]diazepine-1-carboxamide]: the pEC50 (on rat CB2 receptor (rCB2); in assay [1]) was less than 5.00 in each case.

As to `CC(C)CN1CCn2c(-c3ccccc3)nc(C(=O)N[C@H](C)C(C)(C)C)c2C1` [Compound 52, (R)-N-(3,3-dimethylbutan-2-yl)-7-isobutyl-3-phenyl-5,6,7,8-tetrahydroimidazo[1,5-a]pyrazine-1-carboxamide], the “+/− RCB2” value at rat CB2 receptor (rCB2) is “−”. The pEC50 in assay [1] was less than 5.00.

For `CNC(=O)[C@@H](NC(=O)c1nc(-c2cc(F)cc(OC)c2)n2c1CN(C)CCC2)C(C)(C)C` [Compound 384, (S)-N-(3,3-dimethyl-1-(methylamino)-1-oxobutan-2-yl)-3-(3-fluoro-5-methoxyphenyl)-8-methyl-6,7,8,9-tetrahydro-5H-imidazo[1,5-a][1,4]diazepine-1-carboxamide], the “+/− RCB2” value on rat CB2 receptor (rCB2) was “−”. Moreover, the negative logarithm of the EC50 (pEC50) in assay [1] is less than 5.00.
